In patent US20080051364A1, “Therapeutic Treatment of Accelerated Bone Resorption” (priority 2004, published 2008):

Legend:
[1] = test system: Adjuvant Induced Arthritis (AIA), collagen induced arthritis (CIA) and thropomyosine induced arthritis; settings: different experimental animal models; Baharav et al. 2004; cited from earlier work
[2] = test system: key signaling protein expression down-stream to A3AR activation in paw extracts; assay: Western blot analysis of key signaling proteins in paw extracts from AIA rats; type: in vivo, rat
Procedure: The hind paws were dissected above the ankle joint. The bony tissue was broken into pieces broken, snap frozen in liquid nitrogen and stored at −80° C. until use. The paw tissues were added to (4 ml/g tissue) RIPA extraction buffer containing 150 mM NaCl, 50 mM Tris, 1% NP40, 0.5% Deoxycholate and 0.1% SDS. Tissues were homogenized on ice with a polytron, centrifuged and the supernatans were subjected to Western Blot analysis
Western blot analysis (WB) of paw extracts were carried out according to the following protocol. Samples were rinsed with ice-cold PBS and transferred to ice-cold lysis buffer (TNN buffer, 50 mM Tris buffer pH=7.5, 150 mM NaCl, NP 40). Cell debris was removed by centrifugation for 10 min, at 7500×g. Protein concentrations were determined using the Bio-Rad protein assay dye reagent. Equal amounts of the sample (50 μg) were separated by SDS-PAGE, using 12% polyacrylamide gels. The resolved proteins were then electroblotted onto nitrocellulose membranes (Schleicher & Schuell, Keene, N.H., USA). Membranes were blocked with 1% BSA and incubated with the desired primary antibody (dilution 1:1000) for 24 h at 4° C. Blots were then washed and incubated with a secondary antibody for 1 h at room temperature. Bands were recorded using BCIP/NBT color development kit (Promega, Madison, Wis., USA). Data presented in the different figures are representative of at least four different experiments.
The hind paws of animals from the control and IB-MECA treated groups were dissected and after protein extraction the samples were subjected for WB analysis. […] The activation of the A3AR led to a 40% decrease in the RANKL protein expression level in paw extracts derived from IB-MECA treated AIA rats. […] This Chain of events led a 50% reduction in the expression level of TNF-α upon IB-MECA treatment.

[3] = test system: AIA rats; assay: Clinical disease score and paw thickness in the Adjuvant Induced Arthritis (AIA) rat model; type: in vivo
Procedure: (§1) Female Lewis rats, aged 8-10 weeks, obtained from Harlan Laboratories (Jerusalem, Israel), were injected subcutaneously (SC) at the tail base with 100 μl of suspension composed of incomplete Freund's adjuvant with 10 mg/ml heat killed Mycobacterium tuberculosis. Each group contained 10 animals and each experiment was conducted at least three times.
(§2) Drugs were orally administered by gavage, twice daily. The […] received vehicle only (DMSO in a dilution corresponding to that of the drug) while the treatment groups received 10 μg/kg of IB-MECA. Treatment was initiated on day 14 after vaccination.
The animals were inspected every second day for clinical arthritis. The scoring system ranged from 0-4 of each limb: 0—no arthritis; 1—redness or swelling of one toe/finger joint; 2—redness and swelling of more than one toe/finger joints, 3—the ankle and tarsal-metatarsal joints involvement. 4—entire paw redness or swelling. The inflammatory intensity was also determined in accordance with the increase in the rat hind paw's diameter, measured by caliper (Mitotoyo, Tokyo, Japan).

[4] = Plasma half life in human studies; type: in vivo; settings: data not shown
Procedure: (§3) Based on the above conversion methods, the preferred dosage range for two specific A3AR agonist, e.g. IB-MECA and Cl-IB-MECA, would be less than 4 mg, typically within the range of about 0.01 to about 2 mg (about 0.14-28 micrograms/Kg, respectively) and desirably within the range of about 0.1 to 1.5 mg (about 1.4-21 micrograms/Kg, respectively). This dose may be administered once, twice or, at times, several times a day.

[5] = Plasma half life in mice; type: in vivo
Procedure: as §3

[6] = test system: AIA rats; assay: Histological score of joints of AIA rats; type: in vivo, rat
Procedure: as §1, §2
The foot, knee and hip region of both vehicle and CF101 treated animals were collected and fixed in 10% buffered formalin and decalcified in hydrochloric acid (Calci-Clear Rapid) (Pational Diagnostics, Gr, USA) for 24 h. The specimens were then processed for paraffine embedding, histologic 4-μm sections were cut and stained with hematoxylin and eosin. The sections were assessed by a pathologist blinded to the treatment protocols, and each joint was scored separately. The histology score was assessed as follows: A score of 0 to 4 for the extent of inflammatory cells' infiltration to was used according to the followed: 0—Normal; 1—minimal inflammatory infiltration; 2—mild infiltration; 3—moderate infiltration; 4—marked infiltration. The pannus formation joint tissues, synovial lining cell hyperplasia. The score was graded […]: 0—normal; 1—minimal loss of cortical bone at a few sites; 2—mild loss of cortical trabecular bone; 3—moderate loss of bone at many sites; 4—marked loss of bone at many sites; 5—marked loss of bone at many sites with fragmenting and full thickness penetration of inflammatory process or pannus into the cortical bone. The mean of all the histological parameter scores were designated “Histology Score”.
At day 23 after the disease induction, the animals were scarified, and joints from two hind paws of each animal were harvested and examined histologically. The histological analysis was carried out on the basis of infiltration of inflammatory cells, synovial hyperplasia, cartilage and bone destruction. Most of the histophathological changes were found in the interophalangeal region of the foot. […] Overall, the severity of joint histopathology was correlated with the clinical severity index.

CNC(=O)[C@H]1O[C@@H](n2cnc3c(NCc4cccc(I)c4)ncnc32)[C@H](O)[C@@H]1O [IB-MECA, N^6-(3-iodobenzyl)-adenosine-5′-N-methyluronamide]
clinical and pathological manifestations of arthritis [1]: efficacious in preventing the clinical and pathological manifestations of arthritis
A3AR expression ([2]; WB (FIG. 10A)): Modulation in the A3AR itself was noted
decrease in the RANKL protein expression level ([2]; WB (FIG. 10B)): 40%
level of IKK ([2]; WB (FIG. 10C)): down-regulation
level of NF-κB ([2]; WB (FIG. 10C)): reduced level
reduction in the expression level of TNF-α ([2]; WB (FIG. 10C)): 50%
PI3K protein expression level ([2]; WB, vs control (FIG. 10C)): reduction in the protein expression level
PKB/AKT protein expression level ([2]; WB, vs control (FIG. 10C)): reduction in the protein expression level
paw edema ([3]; AIA rats, 10 μg/kg orally twice daily from day 14): significantly decreased
inhibition in the paw thickness ([3]; AIA rats, 10 μg/kg orally twice daily from day 14 (FIG. 1B)): 35%±1.2
maximal clinical arthritic score ([3]; AIA rats, 10 μg/kg orally twice daily from day 14, score 0-4 of each limb, control 8.7±0.76 (FIG. 1A)): 4.8±0.95
paw appearance (redness and swelling) ([3]; representative paw vs control group (FIG. 1C)): appears completely normal
half life in plasma [4]: 8 to 10 h
half life [5]: 1.5 h
bone loss ([6]; AIA rat model, summary statement): prevents bone loss
fibrosis and hyperplasia of the synovia ([6]; day 23 (FIGS. 3A-3B)): almost no the fibrosis and mild hyperplasia of the synovia
pannus tissue development ([6]; day 23 (FIGS. 4A-4B)): mild evidence for a development of pannus tissue
cartilage texture / destruction ([6]; day 23 (FIGS. 5A-5B)): appeared to be normal
presence of osteoblasts ([6]; day 23 (FIGS. 8A-8B)): low presence of osteoblasts
new bone formation ([6]; day 23 (FIGS. 9A-9B)): slight new bone formation
reduction in the appearance of osteoclasts ([6]; day 23, in comparison to the control group (FIGS. 6A-6B)): 73%
inflammatory changes in the joints, mean total score ([6]; day 23, score 0-4, control 3.2±0.14 (FIGS. 2A-2B)): 0.4±0.034
histopathological changes in the knee region ([6]; day 23 after disease induction, vs vehicle group): remained intact
